Laboratory results published in ChEMBL document CHEMBL3045131, “Cyclopenta[b]benzofurans from Aglaia species with pronounced antifungal activity against rice blast fungus (Pyricularia grisea)” (J Agric Food Chem, 2000).
≈ marks a conversion by molar mass, not a printed value. Calls of active or inactive are those of the source. The rule behind the calls is not given here.

Key:
Type in all cases: functional, organism-based
Pyricularia grisea = test: Antifungal activity against Magnaporthe grisea VIAM MA1627 assessed as inhibition of spore germination by microdilution technique linked with digital image analysis
Fusarium avenaceum = test: Antifungal activity against Fusarium avenaceum VIAM MA1512 assessed as inhibition of spore germination by microdilution technique linked with digital image analysis
Alternaria citri [1] = test: Antifungal activity against Alternaria citri CBS 192.81; VIAM MA1628 assessed as inhibition of spore germination by microdilution technique linked with digital image analysis
Alternaria citri [2] = test: Antifungal activity against Alternaria citri CBS 192.81; VIAM MA1628 assessed as inhibition of spore germination at 200 ug/ml by microdilution technique linked with digital image analysis

## COc1ccc([C@]2(C(=O)O)Oc3cc4c(c(OC)c3C(=O)[C@H](C(=O)N3CCCC3NC(=O)C(C)C)[C@H]2c2ccccc2)OCO4)cc1 (some centres not stated) [THAPOXEPINE A]
Pyricularia grisea
  EC50: > 200 µg/mL
  EC90: > 200 µg/mL
  MIC: > 200 µg/mL

## CCCCNC(=O)n1c(NC(=O)OC)nc2ccccc21 [BENOMYL]
Fusarium avenaceum
  EC90: > 200 µg/mL
  MIC: 100 µg/mL (≈ 344 µM)
Alternaria citri [1]
  EC50: > 200 µg/mL
  EC90: > 200 µg/mL
  MIC: > 200 µg/mL
Pyricularia grisea
  EC90: 84 µg/mL (≈ 289 µM)
  MIC: 200 µg/mL (≈ 689 µM)

## COc1ccc([C@@]23Oc4cc5c(c(OC)c4[C@]2(O)[C@H](O)[C@H](C(=O)N(C)C)[C@H]3c2ccccc2)OCO5)cc1 [AGLAROXIN A]
Pyricularia grisea
  EC50: 1.4 µg/mL (≈ 2.69 µM)
  EC90: > 200 µg/mL
  MIC: 100 µg/mL (≈ 192 µM)

## COC(=O)[C@H]1[C@@H](O)[C@@]2(O)c3c(cc4c(c3OC)OCO4)O[C@@]2(c2ccc(OC)cc2)[C@@H]1c1ccccc1 [PANNELLIN]
Fusarium avenaceum
  EC50: 11 µg/mL (≈ 21.7 µM)
  EC90: > 200 µg/mL
  MIC: 200 µg/mL (≈ 395 µM)
Alternaria citri [1]
  EC50: > 200 µg/mL
  EC90: > 200 µg/mL
  MIC: > 200 µg/mL
Pyricularia grisea
  EC50: 0.06 µg/mL (≈ 0.118 µM)
  EC90: 171 µg/mL (≈ 338 µM)
  MIC: 50 µg/mL (≈ 98.7 µM)

## COc1ccc([C@@]23Oc4cc(OC)cc(OC)c4[C@]2(O)[C@H](O)C[C@H]3c2ccccc2)cc1 [ROCAGLAOL]
Fusarium avenaceum
  EC50: 0.4 µg/mL (≈ 0.921 µM)
  EC90: 9 µg/mL (≈ 20.7 µM)
  MIC: 25 µg/mL (≈ 57.5 µM)
Alternaria citri [2]
  Activity: inactive
Alternaria citri [1]
  EC50: 6 µg/mL (≈ 13.8 µM)
  EC90: 24 µg/mL (≈ 55.2 µM)
  MIC: 50 µg/mL (≈ 115 µM)
Pyricularia grisea
  EC50: 0.01 µg/mL (≈ 0.023 µM)
  EC90: 0.3 µg/mL (≈ 0.69 µM)
  MIC: 1.6 µg/mL (≈ 3.68 µM)

## COC(=O)[C@H]1[C@@H](O)[C@@]2(O)c3c(OC)cc(OC)cc3O[C@@]2(c2ccc(OC)cc2)[C@@H]1c1ccccc1 [AGLAFOLIN]
Fusarium avenaceum
  EC50: 1.6 µg/mL (≈ 3.25 µM)
  EC90: 38 µg/mL (≈ 77.2 µM)
  MIC: 100 µg/mL (≈ 203 µM)
Alternaria citri [1]
  EC50: 44 µg/mL (≈ 89.3 µM)
  EC90: 171 µg/mL (≈ 347 µM)
  MIC: 200 µg/mL (≈ 406 µM)
Pyricularia grisea
  EC50: 0.05 µg/mL (≈ 0.102 µM)
  EC90: 8 µg/mL (≈ 16.2 µM)
  MIC: 3 µg/mL (≈ 6.09 µM)

## COC(=O)[C@@H]1[C@@]2(O)c3c(cc4c(c3OC)OCO4)O[C@]1(c1ccc(OC)cc1)[C@H](c1ccccc1)[C@H]2C(=O)N1CCCC1NC(=O)C(C)C (some centres not stated) [THAPSAKINACETATE A]
Pyricularia grisea
  EC50: > 200 µg/mL
  EC90: > 200 µg/mL
  MIC: > 200 µg/mL

## CNC(=O)[C@H]1[C@@H](O)[C@@]2(O)c3c(OC)cc(OC)cc3O[C@@]2(c2ccc(OC)cc2)[C@@H]1c1ccccc1 [DESMETHYL ROCAGLAMIDE]
Pyricularia grisea
  EC50: 7 µg/mL (≈ 14.2 µM)
  EC90: 146 µg/mL (≈ 297 µM)
  MIC: 100 µg/mL (≈ 203 µM)

## COc1ccc(C2C(=O)Oc3cc4c(c(OC)c32)OCO4)cc1 (configuration not stated) [AGLALACTONE]
Pyricularia grisea
  EC50: > 200 µg/mL
  EC90: > 200 µg/mL
  MIC: > 200 µg/mL

## CN(CC[C@H](N)CC(=O)N[C@H]1C=C[C@H](n2ccc(N)nc2=O)O[C@@H]1C(=O)O)C(=N)N [BLASTICIDIN_S]
Fusarium avenaceum
  EC50: 0.4 µg/mL (≈ 0.947 µM)
  EC90: 7 µg/mL (≈ 16.6 µM)
  MIC: 25 µg/mL (≈ 59.2 µM)
Alternaria citri [1]
  EC50: 6 µg/mL (≈ 14.2 µM)
  EC90: 53 µg/mL (≈ 125 µM)
  MIC: 50 µg/mL (≈ 118 µM)
Pyricularia grisea
  EC90: > 200 µg/mL
  MIC: > 200 µg/mL

## COc1ccc([C@@]23Oc4cc(OC)cc(OC)c4[C@]2(O)[C@H](O)[C@H](C(=O)N(C)C)[C@H]3c2ccccc2)cc1 [ROCAGLAMIDE]
Fusarium avenaceum
  EC50: 8 µg/mL (≈ 15.8 µM)
  EC90: 66 µg/mL (≈ 131 µM)
  MIC: 200 µg/mL (≈ 396 µM)
Alternaria citri [1]
  EC50: > 200 µg/mL
  EC90: > 200 µg/mL
  MIC: > 200 µg/mL
Pyricularia grisea
  EC50: 0.9 µg/mL (≈ 1.78 µM)
  EC90: 35 µg/mL (≈ 69.2 µM)
  MIC: 25 µg/mL (≈ 49.4 µM)
